Assay results as given in patent US9586986B2, “Substituted 7-deazapurine ribonucleosides for therapeutic uses” (Institute of Organic Chemistry and Biochemistry ASCR, v.v.i., priority 2014, dated 2017).

What was measured:
HCT116 = experiment: Cytostatic/cytotoxic MTT assay, HCT116; assay type: cell-based; conditions: Homo sapiens, HCT-116; 72 h incubation; read-out: MTT, IC50 HCT116
Excerpt: (§1) Unless otherwise stated, all cells were purchased from the […] (ATCC). The CCRF-CEM line is derived from T lymphoblastic leukemia, evincing high chemosenzitivity, K562 represent cells from a […] patient sample with bcr-abl translocation, HCT116 is colorectal tumor cell line and its p53 gene knock-down counterpart (HCT116p53−/−, Horizon Discovery, UK) is a model of human cancers with p53 inactivation frequently associated with poor prognosis, A549 cell line is lung adenocarcinoma. The daunorubicin resistant subline of CCRF-CEM cells (CEM-DNR bulk) and paclitaxel resistant subline K562-TAX were selected in our laboratory by cultivation of maternal cell lines in increasing concentrations of daunorubicine or paclitaxel, respectively. The CEM-DNR cells overexpress mrp-1 and mdr-1 genes, while K562-TAX cells overexpress mdr-1 only. Both proteins belong to the family of ABC transporters and are involved in the primary and/or acquired multidrug resistance phenomenon (ref.: Gottesman, M. M.; Fojo, T.; Bates, S. E. Multidrug resistance in cancer: role of ATP-dependent transporters. Nat. Rev. Cancer. 2002, 2, 48-58. (b) Noskova, V.; Dzubak, P.; Kuzmina, G.; Ludkova, A.; Stehlik, D.; Trojanec, R.; Janostakova, A.; Korinkova, G.; Mihal, V.; Hajduch, M. In vitro chemoresistance profile and expression/function of MDR associated proteins in resistant cell lines derived from CCRF-CEM, K562, A549 and MDA MB 231 parental cells. Neoplasma 2002, 49, 418-425). Non-malignant MRC-5 and BJ cells, derived from normal human fibroblasts, were used as controls. The cells were maintained in Nunc/Corning 80 cm^2 plastic tissue culture flasks and cultured in cell culture medium (DMEM/RPMI 1640 with 5 g/L glucose, 2 mM glutamine, 100 U/mL penicillin, 100 µg/mL streptomycin, 10% fetal calf serum, and NaHCO3). Cell suspensions were prepared and diluted according to the particular cell type and the expected target cell density (25,000-30,000 cells/well based on cell growth characteristics). Cells were added by pipette (80 L) into 96-well microtiter plates. Inoculates were allowed a pre-incubation period of 24 h at 37° C. and 5% CO2 for stabilization. Four-fold dilutions, in 20-L aliquots, of the intended test concentration were added to the microtiter plate walls at time zero. All test compound concentrations were examined in duplicate. Incubation of the cells with the test compounds lasted for 72 h at 37° C., in a 5% CO2 atmosphere at 100% humidity. At the end of the incubation period, the cells were assayed using MTT. Aliquots (10 L) of the MTT stock solution (5 mg/ml) were pipetted into each well and incubated for another 1-4 h. After this incubation period the formazan produced was dissolved by addition of 100 µL/well of 10% aq SDS (pH 5.5), followed by a further incubation at 37° C. overnight. The optical density was measured at 540 nm. The IC50 value, the drug concentration inhibiting the cell growth by 50%, was calculated from appropriate dose-response curves.
(§2) In vitro cytotoxic/cytostatic activity final nucleosides 1-5 was initially evaluated against […] cell lines derived from human solid tumors including lung (A549 cells) and colon (HCT116 and HCT116p53−/−) carcinomas, as well as leukemia cell lines (CCRF-CEM, CEM-DNR, K562 and K562-TAX) and, for comparison, non-malignant BJ and MRC-5 fibroblasts. Concentrations inhibiting the cell growth by 50% (IC50) were determined using a quantitative metabolic staining with 3-(4,5-dimethylthiazol-2-yl)-2,5-diphenyltetrazolium bromide (MTT) (ref.: Denizot, F.; Lang, R. Rapid colorimetric assay for cell growth and survival: Modifications to the tetrazolium dye procedure giving improved sensitivity and reliability. J. Immunol. Meth. 1986, 89, 271-277) following a 3-day treatment.
(§3) Multidrug resistance is a major therapeutic problem in cancer chemotherapy. […]

HeLa S3 = experiment: XTT cytotoxicity assay, HeLa S3; assay type: cell-based; conditions: Homo sapiens, HeLa S3; 72 h incubation; read-out: XTT, IC50 HeLa S3
Experimental: (§4) HL-60, Hela S3 and HepG2 cell lines (ATCC) were grown in RPMI-1640 or DMEM medium supplemented with 10% fetal calf serum, […] of streptomycin, 200 U/mL of penicillin G and 4 mM glutamine in a humidified atmosphere containing 5% CO2 at 37° C. Sensitivity of these cell lines to the synthesized compounds was assessed with the use of XTT cell proliferation kit II (Roche Diagnostics GmbH, Mannheim, Germany) according to the manufacturer's instructions. Briefly, cells were seeded in a 96-well plate at a density of 10,000 cells per well (90 μL). After 24 h, 10 μL of the tested compounds were added to the culture media at desired concentration range and incubated for 72 h. After that 50 μL of the XTT solution was added (1 mg/mL XTT+0.383 mg/mL N-methyl dibenzopyrazine methyl sulfate). The absorbance was recorded at 495 nm following a 2 h-incubation with the dye. IC50 values were determined by non-linear regression method using GraphPad Prism version 5.00 for Windows (GraphPad Software, La Jolla, Calif., USA).
(§5) In addition, the anti-proliferative effect was tested against a human T-lymphoblastic leukemia line CCRF-CEM, promyelocytic leukemia HL-60 and cervical carcinoma HeLa S3 growing in liquid suspension. Cell viability was determined following a 3-day incubation using 2,3-bis-(2-methoxy-4-nitro-5-sulfophenyl)-2H-tetrazolium-5-carboxanilide (XTT) assay (ref.: Scudiero, D. A.; Shoemaker, R. H.; Paull, K. D.; Monks, A.; Tierney, S.; Nofziger, T. H.; Currens, M. J.; Seniff, D.; Boyd M. R. Evaluation of a Soluble Tetrazolium/Formazan Assay for Cell Growth and Drug Sensitivity in Culture Using Human and Other Tumor Cell Lines. Cancer Res. 1988, 48, 4827-4833).

CEM-DNR-bulk = experiment: Cytostatic/cytotoxic MTT assay, CEM-DNR-bulk; assay type: cell-based; conditions: Homo sapiens; daunorubicin resistant subline, 72 h; read-out: MTT, IC50 CEM-DNR-bulk
Excerpt: as §1, §2, §3

MRC-5 = experiment: Cytostatic/cytotoxic MTT assay, MRC-5 fibroblasts; assay type: cell-based; conditions: Homo sapiens, MRC5; non-malignant fibroblasts, 72 h; read-out: MTT, IC50 MRC-5
Excerpt: as §1, §2

A549 = experiment: Cytostatic/cytotoxic MTT assay, A549; assay type: cell-based; conditions: Homo sapiens, A549; 72 h incubation; read-out: MTT, IC50 A549
Excerpt: as §1, §2

BJ = experiment: Cytostatic/cytotoxic MTT assay, BJ fibroblasts; assay type: cell-based; conditions: Homo sapiens, non-malignant fibroblasts, 72 h, read-out: MTT, IC50 BJ
Excerpt: as §1, §2

HL60 = experiment: XTT cytotoxicity assay, HL-60; assay type: cell-based; conditions: Homo sapiens, HL-60; 72 h incubation; read-out: XTT, IC50 HL60
Experimental: as §4, §5

K562-TAX = experiment: Cytostatic/cytotoxic MTT assay, K562-TAX; assay type: cell-based; conditions: Homo sapiens, paclitaxel resistant subline, 72 h, read-out: MTT, IC50 K562-TAX
Excerpt: as §1, §2, §3

HepG2 = experiment: XTT cytotoxicity assay, HepG2; assay type: cell-based; conditions: Homo sapiens, HepG2; 72 h incubation; read-out: XTT, IC50 HepG2
Experimental: as §4

HCT116p53-/- = experiment: Cytostatic/cytotoxic MTT assay, HCT116p53-/-; assay type: cell-based; conditions: Homo sapiens, HCT-116; 72 h incubation; read-out: MTT, IC50 HCT116 p53-/-
Excerpt: as §1, §2, §3

K562 = experiment: Cytostatic/cytotoxic MTT assay, K562; assay type: cell-based; conditions: Homo sapiens, K562; 72 h incubation; read-out: MTT, IC50 K562
Excerpt: as §1, §2

CCRF-CEM = experiment: Cytostatic/cytotoxic MTT assay, CCRF-CEM; assay type: cell-based; conditions: Homo sapiens, 72 h incubation, read-out: MTT, IC50 CCRF-CEM
Excerpt: as §1, §2

Structure (SMILES)	IC50 (HCT116)	IC50 (HeLa S3)	IC50 (CEM-DNR-bulk)	IC50 (MRC-5)	IC50 (A549)	IC50 (BJ)	IC50 (HL60)	IC50 (K562-TAX)	IC50 (HepG2)	IC50 (HCT116p53-/-)	IC50 (K562)	IC50 (CCRF-CEM)	melting point
CNc1ncnc2c1c(I)cn2[C@@H]1O[C@H](CO)[C@@H](O)[C@H]1O [Compound 3h, 5-Iodo-4-methylamino-7-(β-D-ribofuranosyl)-7H-pyrrolo[2,3-d]pyrimidine]	> 100 µM	> 20 µM	> 20 µM	> 100 µM	> 100 µM	> 100 µM	> 20 µM	> 20 µM	> 20 µM	> 100 µM	> 100 µM	> 100 µM	–
Cc1ncnc2c1c(Br)cn2[C@@H]1O[C@H](CO)[C@@H](O)[C@H]1O [Compound 5i, 5-Bromo-4-methyl-7-(β-D-ribofuranosyl)-7H-pyrrolo[2,3-d]pyrimidine]	15.7 µM	13.8 µM	> 20 µM	24.4 µM	> 20 µM	> 100 µM	7.24 µM	15.8 µM	5.55 µM	19.6 µM	> 20 µM	15 µM	188 to 189 °C
Cc1ncnc2c1c(I)cn2[C@@H]1O[C@H](CO)[C@@H](O)[C@H]1O [Compound 5h, 5-Iodo-4-methyl-7-(β-D-ribofuranosyl)-7H-pyrrolo[2,3-d]pyrimidine]	4.72 µM	4.08 µM	12.6 µM	13.3 µM	12.2 µM	> 100 µM	2.65 µM	> 20 µM	3.46 µM	7.57 µM	17.8 µM	5.48 µM	–
